Test results: patent US8003695B2 (Chroma Therapeutics Ltd., priority 2006, dated 2011)

Columns and labels:
IKBKB (IKKβ) = target: T1, IKBKB (IKKβ) (Homo sapiens, UniProt O14920); experiment: IKKβ Enzyme Assay (Z'-LYTE, Invitrogen); type: biochemical; conditions: ATP at or close to Km; read-out: Inhibitor activity versus IKKβ
T1 construct: purchased Invitrogen (Paisley, UK)
T1 sequence (O14920 1-756): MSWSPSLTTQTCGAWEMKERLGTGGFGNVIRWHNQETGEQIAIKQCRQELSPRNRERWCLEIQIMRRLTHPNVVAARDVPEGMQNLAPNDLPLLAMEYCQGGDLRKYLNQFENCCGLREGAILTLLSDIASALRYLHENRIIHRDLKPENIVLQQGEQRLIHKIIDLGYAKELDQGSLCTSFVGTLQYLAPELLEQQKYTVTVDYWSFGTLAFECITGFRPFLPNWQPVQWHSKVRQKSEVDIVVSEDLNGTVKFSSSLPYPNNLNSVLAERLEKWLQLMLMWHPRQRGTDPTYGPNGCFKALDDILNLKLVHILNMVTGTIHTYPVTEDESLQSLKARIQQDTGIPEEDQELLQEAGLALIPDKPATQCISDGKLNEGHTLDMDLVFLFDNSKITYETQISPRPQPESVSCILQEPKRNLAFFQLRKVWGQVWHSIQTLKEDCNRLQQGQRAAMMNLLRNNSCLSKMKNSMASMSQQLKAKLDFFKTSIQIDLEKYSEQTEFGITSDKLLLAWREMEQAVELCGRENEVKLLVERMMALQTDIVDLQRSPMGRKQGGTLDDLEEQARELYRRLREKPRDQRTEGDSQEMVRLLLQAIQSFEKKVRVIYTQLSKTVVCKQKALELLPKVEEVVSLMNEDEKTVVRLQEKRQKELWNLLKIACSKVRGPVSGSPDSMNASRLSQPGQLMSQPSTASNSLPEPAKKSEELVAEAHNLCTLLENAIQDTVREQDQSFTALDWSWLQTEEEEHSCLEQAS
Procedure: The ability of compounds to inhibit IKKβ kinase activity was measured in an assay performed by Invitrogen (Paisley, UK). The Z′-LYTE™ biochemical assay employs a fluorescence-based, coupled-enzyme format and is based on the differential sensitivity of phosphorylated and non-phosphorylated peptides to proteolytic cleavage. The peptide substrate is labelled with two fluorophores—one at each end—that make up a FRET pair. In the primary reaction, the kinase transfers the gamma-phosphate of ATP to a single serine or threonine residue in a synthetic FRET-peptide. In the secondary reaction, a site-specific protease recognizes and cleaves non-phosphorylated FRET-peptides. Phosphorylation of FRET-peptides suppresses cleavage by the Development Reagent. Cleavage disrupts FRET between the donor (i.e., coumarin) and acceptor (i.e. fluorescein) fluorophores on the FRET-peptide, whereas uncleaved, phosphorylated FRET-peptides maintain FRET. A […] method, which calculates the ratio (the Emission Ratio) of donor emission to acceptor emission after excitation of the donor fluorophore at 400 nm, is used to quantitate reaction progress.
The final 10 μL Kinase Reaction consists of 0.9-8.0 ng IKBKB (IKKβ), 2 μM Ser/Thr 05 Peptide and ATP in 50 mM HEPES pH 7.5, 0.01% BRIJ-35, 10 mM MgCl2, 1 mM EGTA. The assay is performed at an ATP concentration at, or close to the Km. After the 60 minute Kinase Reaction incubation at room temperature, 5 μL of a 1:128 dilution of Development Reagent is added. The assay plate is incubated for a further 60 minutes at room temperature and read on a fluorescence plate reader.
Duplicate data points are generated from a ⅓ log dilution series of a stock solution of test compound in DMSO. Nine dilutions steps are made from a top concentration of 10 μM, and a ‘no compound’ blank is included. Data is collected and analysed using XLfit software from IDBS. The dose response curve is curve fitted to model number 205 (sigmoidal dose-response model). From the curve generated, the concentration giving 50% inhibition is determined and reported.

human whole blood = experiment: LPS-Stimulation of Human Whole Blood, TNF-α release; type: cell-based; conditions: LPS 100 ng/ml, 6 hrs, read-out: Inhibitor activity versus human whole blood TNFα release
Procedure: LPS-Stimulation of Human Whole Blood
Whole blood was taken by venous puncture using heparinised vacutainers (Becton Dickinson) and diluted in an equal volume of RPMI1640 tissue culture media (Sigma). 100 μl was plated in V-bottomed 96 well tissue culture treated plates. 2 hrs after the addition of the inhibitor in 100 μl of RPMI1640 media, the blood was stimulated with LPS (E. coli strain 005:B5, Sigma) at a final concentration of 100 ng/ml and incubated at 37° C. in 5% CO2 for 6 hrs. TNF-α levels were measured from cell-free supernatants by sandwich ELISA (R&D Systems #QTA00B)

THP-1 cells = experiment: LPS-Stimulation of THP-1 Cells, TNF-α release; type: cell-based; conditions: Homo sapiens, LPS 1 μg/ml, 6 hrs, read-out: Inhibitor activity versus THP-1 TNFα release
Procedure: LPS-Stimulation of THP-1 Cells
THP-1 cells were plated in 100 μl at a density of 4×10^4 cells/well in V-bottomed 96 well tissue culture treated plates and incubated at 37° C. in 5% CO2 for 16 hrs. 2 hrs after the addition of the inhibitor in 100 μl of tissue culture media, the cells were stimulated with LPS (E. coli strain 005:85, Sigma) at a final concentration of 1 μg/ml and incubated at 37° C. in 5% CO2 for 6 hrs. TNF-α levels were measured from cell-free supernatants by sandwich ELISA (R&D Systems #QTA00B)

| Structure (SMILES) | IC50 (IKBKB (IKKβ)) [µM] | IC50 (human whole blood) [µM] | IC50 (THP-1 cells) [µM] |
| --- | --- | --- | --- |
| NC(=O)Nc1sc(-c2cccc(CN[C@@H](CO)C(=O)OC3CCCC3)c2)cc1C(N)=O [Example 12, Cyclopentyl N-{3-[4-carbamoyl-5-(carbamoylamino)thiophen-2-yl]benzyl}-L-serinate] | < 1 | < 1 | – |
| CC(C)[C@H](NCc1cccc(-c2cc(C(N)=O)c(NC(N)=O)s2)c1)C(=O)OC1CCCC1 [Example 15, Cyclopentyl N-{3-[4-carbamoyl-5-(carbamoylamino)thiophen-2-yl]benzyl}-L-valinate] | – | 1 to 5 | – |
| CC(C)(C)OC[C@H](NCCc1cccc(-c2cc(C(N)=O)c(NC(N)=O)s2)c1)C(=O)OC1CCCC1 [Example 20, Cyclopentyl O-tert-butyl-N-(2-{3-[4-carbamoyl-5-(carbamoylamino)-2-thienyl]phenyl}ethyl)-L-serinate] | – | 1 to 5 | – |
| C[C@@H](OC(C)(C)C)[C@H](NCCc1cccc(-c2cc(C(N)=O)c(NC(N)=O)s2)c1)C(=O)OC1CCCC1 [Example 21, Cyclopentyl O-tert-butyl-N-(2-{3-[4-carbamoyl-5-(carbamoylamino)-2-thienyl]phenyl}ethyl)-L-threoninate] | – | > 5 | – |
| Cc1ccc(-c2cc(C(N)=O)c(NC(N)=O)s2)cc1CCN[C@@H](CC(C)C)C(=O)OC1CCCC1 [Example 23, Cyclopentyl N-(2-{5-[4-carbamoyl-5-(carbamoylamino)thiophen-2-yl]-2-methylphenyl}ethyl)-L-leucinate] | – | > 5 | – |
| CC(C)C[C@H](NCCc1cc(-c2cc(C(N)=O)c(NC(N)=O)s2)ccc1Cl)C(=O)OC1CCCC1 [Example 24, Cyclopentyl N-(2-{5-[4-carbamoyl-5-(carbamoylamino)thiophen-2-yl]-2-chlorophenyl}ethyl)-L-leucinate] | – | > 5 | – |
| CC(C)C[C@H](NC/C=C/c1cc(F)c(-c2cc(C(N)=O)c(NC(N)=O)s2)cc1F)C(=O)OC1CCCC1 [Example 37, Cyclopentyl N-[(2E)-3-{4-[4-carbamoyl-5-(carbamoylamino)thiophen-2-yl]-2,5-difluorophenyl}prop-2-en-1-yl]-L-leucinate] | 1 to 5 | – | 1 to 5 |
| CC(C)C[C@H](NC/C=C/c1c(F)cc(-c2cc(C(N)=O)c(NC(N)=O)s2)cc1F)C(=O)OC1CCCC1 [Example 38, Cyclopentyl N-[(2E)-3-{4-[4-carbamoyl-5-(carbamoylamino)thiophen-2-yl]-2,6-difluorophenyl}prop-2-en-1-yl]-L-leucinate] | > 5 | 1 to 5 | – |
| CC(C)C[C@H](NC/C=C/c1ccc(-c2cc(C(N)=O)c(NC(N)=O)s2)c(C(F)(F)F)c1)C(=O)OC1CCCC1 [Example 39, Cyclopentyl N-[(2E)-3-{4-[4-carbamoyl-5-(carbamoylamino)thiophen-2-yl]-3-(trifluoromethyl)phenyl}prop-2-en-1-yl]-L-leucinate] | > 5 | 1 to 5 | – |
| CC(C)(C)OC[C@H](NC/C=C/c1ccc(-c2cc(C(N)=O)c(NC(N)=O)s2)cc1)C(=O)OC1CCCC1 [Example 43, Cyclopentyl O-tert-butyl-N-[(2E)-3-{4-[4-carbamoyl-5-(carbamoylamino)thiophen-2-yl]phenyl}prop-2-en-1-yl]-L-serinate] | < 1 | 1 to 5 | – |
| C[C@@H](OC(C)(C)C)[C@H](NC/C=C/c1ccc(-c2cc(C(N)=O)c(NC(N)=O)s2)cc1)C(=O)OC1CCCC1 [Example 47, Cyclopentyl O-tert-butyl-N-[(2E)-3-{4-[4-carbamoyl-5-(carbamoylamino)thiophen-2-yl]phenyl}prop-2-en-1-yl]-L-threoninate] | – | > 5 | – |
| C[C@@H](O)[C@H](NC/C=C/c1ccc(-c2cc(C(N)=O)c(NC(N)=O)s2)cc1)C(=O)OC1CCCC1 [Example 48, Cyclopentyl N-[(2E)-3-{4-[4-carbamoyl-5-(carbamoylamino)thiophen-2-yl]phenyl}prop-2-en-1-yl]-L-threoninate] | – | 1 to 5 | – |
